Test results reported in patent US11219625B2, “Inhibitors of N-linked glycosylation and methods using same” (YALE UNIVERSITY, priority 2015, dated 2022).

Key:
Type in all cases: cell-based
[1] = tested on: A549 cells; assay: MTT proliferation assay, A549; conditions: A549, 10 μM NGI-1 or 1 μM tunicamycin
Method: (§1) FIGS. 4A-4H illustrate the finding that NGI-1 blocks RTK driven proliferation. FIG. 4A illustrates western blot analysis of EGFR phosphorylation (Y1173) and gel mobility in PC9 (EGFR-mutant) and A549 (k-ras mutant) NSCLC cells after 10 μM NGI-1 treatment for 24 h. […] Actin expression was used as a control for protein loading. FIG. 4B illustrates MTT assays results of PC9 following treatment with 10 μM NGI-1 or 1 μM tunicamycin for a total of 5 d. Relative proliferation id reported in fold increase from day 0. FIG. 4C illustrates MTT assays results of A549 following treatment with 10 μM NGI-1 or 1 μM tunicamycin for a total of 5 d. Relative proliferation id reported in fold increase from day 0. FIG. 4D illustrates protein phosphorylation profiles of PC9 cells analyzed by phospho-protein array to assess the response of PC9 to 10 μM NGI-1 for 24 h. FIG. 4E illustrates protein phosphorylation profiles of A549 cells analyzed by phospho-protein array to assess the response of A549 to 10 μM NGI-1 for 24 h. […]
(§2) Growth rates were determined by CellTiter 96 NonRadioactive Cell Proliferation Assay (Promega; Madison, Wis. USA) according to the manufacturer's directions. […] Cell numbers were estimated after 0, 3, and 5 days by adding MTT [(3-(4,5-Dimethylthiazol-2-yl)-2,5-diphenyltetrazolium bromide] reagent to the wells 4 hours before taking the spectrophotometric reading (absorbance at 570 nm).

[2] = tested on: lipid linked oligosaccharides (LLOs); assay: FACE analysis of lipid linked oligosaccharides; conditions: FACE, FIG. 2B
Method: Fluorophore assisted carbohydrate electrophoresis (FACE) was performed as previously described (Gao, et al., Glycobiology 2002, 12, 353-360; Gao, et al., J Biol Chem 2005, 280, 17901-17909). Control (Ac-Gln-Tyr-Thr-CONH2) and acceptor (Ac-Asn-Tyr-Thr-CONH2) peptides were used for permeabilized cell experiments. Metabolic labeling of Hela cells, transfection of prosaposin (pSAP) and steroid hormone binding globulin (SHBG) vectors, and knockdown of SIT3A and STT3B to monitor N-linked glycosylation knockdown were performed as described (Shrimal, et al., J Cell Biol 2013, 201, 81-95). Western blot analysis was performed as previously described (Bennett, et al., Transl Oncol 2013, 6, 382-391). The following primary antibodies were used: rabbit anti-EGFR (sc-03; Santa Cruz Biotechnology; 1:1000), rabbit anti-phospho (Tyr1173) EGF Receptor (Cell Signaling; 1:1000), rabbit anti-p21 Waf1/Cip1 (12D1; Cell Signaling; 1:1000), rabbit anti-Cyclin D1 (Cell Signaling; 1:1000), mouse anti-β-Actin (8H10D10; Cell Signaling; 1:1000). For phospho-protein array analysis, PC9 and A549 cells were cultured in 6-well plates in serum-containing medium and treated with or without 10 μM NGI-1 for 24 hours. […]

[3] = tested on: A549 cells; assay: Apoptosis by flow cytometry (Annexin-V, 7-AAD), A549; conditions: A549, NGI-1 10 μM for 2 or 5 days, or Tn 1 μM
Method: (§3) Analysis of apoptosis susceptibility in A549 and PC9 NSCLC cell lines followed treatment with NGI-1 10 μM or Tn 1 μM for 2 days was done by flow cytometry after staining the cells with Annexin-V (early apoptosis) and 7-AAD (viability dye). […] FIG. 9C: Western blot of BIP protein for A549 and PC9 cells after treatment with 10 μM NGI-1 for 6, 12 or 24 h. The expression of GAPDH was used as a loading control.

[4] = tested on: PC9 cells; assay: Apoptosis by flow cytometry (Annexin-V, 7-AAD), PC9; conditions: PC9, NGI-1 10 μM for 2 or 5 days, or Tn 1 μM
Method: as §3

[5] = tested on: PC9 cells; assay: MTT proliferation assay, PC9; conditions: PC9, 1 μM tunicamycin
Method: as §1, §2

## tunicamycin [reference compound]
[1]
  effect on proliferation, MTT: immediately blocks proliferation in both cell lines
[2]
  effect on LLO production: blocked all LLO production
[3]
  induction of apoptosis: apoptosis was activated
[4]
  induction of apoptosis: apoptosis was activated
[5]
  effect on proliferation, MTT: immediately blocks proliferation in both cell lines
